Patent US20040044304A1, “Local drug delivery using photosensitizer-mediated and electromagnetic radiation enhanced vascular permeability” (priority 2002, published 2004)
Several values for one entry are separate records, joined by “and”; a condition that tells them apart may be missing. Equal entries are not always repeated. Marks after values point to notes of the source that are not given here.

System: blood vessels and tissue within region of irradiation
Test: Quantitation of FITC-Dextran or TRITC-Dextran fluorescence in blood vessels and tissue (method of Brunner et al.)
Assay type: in vivo, mice of strain C3H
Conditions: for Fluorecence intensity, Tissue, Baseline / Fluorecence intensity, Vessel, Baseline: prior to photodynamic treatment and probe
Description: At varying time points following the photodynamic activation of MRV6401 or SnET2, a total volume of 0.1 ml of either FITC-Dextran or TRITC-Dextran (obtained from Sigma Scientific, PO Box 14508, St. Louis, Mo., 63178, USA) was administered via the i.v. tail vein route. […] No. FD-2000s) or of molecular weight 150 kD (Sigma Cat. No. FD-150s), and the TRITC-Dextran solution was of molecular weight 155 kD (Sigma Cat. No. T1287). Prior to use, the dextrans were suspended in sterile 5% dextrose in water to a final concentration of 5% weight:volume. In all cases, a total volume of 0.1 ml of the […] solution was administered. The time of administration and the molecular weight of the various dextrans that were injected were as described in Table 6. In some animals the vascular permeability was determined 1-60 minutes following the completion of light irradiation using a dextran probe labeled with either FITC or TRITC, which was then followed 24 hours later by determination using a probe labeled with the other (opposite) fluorescent molecule. That is, if FITC was used immediately following irradiation, TRITC was used 24 hours later, and vice versa. To visualize the fluorescence emitted from the FITC-Dextrans, the Leitz Ploemopak L2 cube (Cat. No. 513-420, E. Leitz Inc., Rockleigh, N.J., 07647, USA) was used. This filter cube was fitted with a BP 450-490 (450 nm-490 nm band pass) excitation filter, the RKP 510 long pass dichroic mirror and a BP 525/20 (525±10 nm) band pass barrier filter. To visualize the fluorescence emitted from the TRITC-Dextrans, the Leitz Ploemopak N2 cube (Cat. No. 513-609, E. Leitz Inc., Rockleigh, N.J., 07647, USA) was used. This filter cube was fitted with a BP 530-560 (530 nm-560 nm band pass) excitation filter, the RKP 580 long pass dichroic mirror and the LP 580 (580 nm long pass) barrier filter. The spectral characteristics of the filters in the L2 and N2 cubes were such that in animals that were injected with both FITC- and TRITC-Dextran (see Table 6), there was no fluorescence “bleed-through” from the other fluorophore. That is, when visualizing TRITC-Dextran there was no fluorescent signal from FITC-Dextran that was present in the field. Similarly, when visualizing FITC-Dextran, there was no fluorescent signal from TRITC-Dextran that was present in the field. The quantitation of the level of either FITC-Dextran or TRITC-Dextran fluorescence in various regions of the chambers was undertaken using a minor modification of a previously described method [J. Brunner, F. Krummenaeur and H -A Lehr, “Quantification of video-taped images in microcirculation research using inexpensive imaging software” (Adobe Photoshop), Microcirculation, Vol. 7, pp 103-107, 2000]. In the studies described by Brunner et al., the imaging software utilized to quantitate the levels of fluorescence intensity in defined regions of interest within the window chamber was Adobe Photoshop. The software utilized for the studies described below was Image-Pro Plus (Media Cybernetics, 8484 Georgia Avenue, Silver Spring, Md. 20910, USA). In all other respects, the analysis undertaken below was the same as that described by Brunner et al. The level of fluorescence that was determined in both intra-vascular and extra-vascular regions using this method was directly proportional to the amount of the fluorescent labeled dextran in that region (Brunner et al., 2000).

[1] = 155 kD TRITC-Dextran, SnET2 0.75 mg/kg i.v., green 530 nm-560 nm 225 J/cm^2, time after TRITC-Dextran administration, region of irradiation, 0.75 mg/kg
[2] = Animal #12, 2,000 kD FITC-Dextran, MRV6401 0.05 mg/kg i.v., red 660 nm-680 nm 8 J/cm^2
[3] = Animal #12, 2,000 kD FITC-Dextran, MRV6401 0.05 mg/kg i.v., red 660 nm-680 nm 8 J/cm^2, time after Dextran administration
[4] = Animal #13, 155 kD TRITC-Dextran, MRV6401 0.05 mg/kg i.v., red 660 nm-680 nm 8 J/cm^2
[5] = Animal #13, 155 kD TRITC-Dextran, MRV6401 0.05 mg/kg i.v., red 660 nm-680 nm 8 J/cm^2, time after Dextran administration

## CCOC(=O)C1=Cc2c3nc(cc4nc(cc5[n-]c(cc6[n-]c2c(C)c6CC)c(C)c5CC)C(C)=C4CC)[C@@H](C)[C@]13CC.[Cl-].[Cl-].[Sn] (racemic) [SnET2, tin ethyl etiopurpurin]
155 kD TRITC-Dextran, SnET2 0.75 mg/kg i.v., green 530 nm-560 nm 225 J/cm^2, mean ± 1 SD of three readings, 0.75 mg/kg
  Fluorecence intensity, Tissue, Baseline: 30.5 ± 1.4 and 26.5 ± 0.2
[1]
  Fluorecence intensity, Tissue, 8 min: 82.9 ± 1.9 and 73 ± 2.0
  Fluorecence intensity, Tissue, 20 min: 110 ± 2.4 and 120 ± 4.4
  Fluorecence intensity, Tissue, 1 hr: 175.4 ± 3.3 and 127.9 ± 5.5
  Fluorecence intensity, Tissue, 24 hr: 196.4 ± 4.2 and 155 ± 7.1
  Fluorecence intensity, Vessel, 8 min: 72 ± 1.7 and 105 ± 3.1
  Fluorecence intensity, Vessel, 20 min: 90.6 ± 5.8 and 111 ± 2.7
  Fluorecence intensity, Vessel, 1 hr: 97.7 ± 6.2 and 134 ± 10
  Fluorecence intensity, Vessel, 24 hr: 55 ± 3.1 and 78 ± 1.5

## C=Cc1c(C)c2[n]3c1=CC1=NC(=Cc4c(C)c5c([n]4[In]3[Cl])C(=C3N=C(C=2)[C@@H](C)[C@@H]3CCC(=O)OC)CC5=O)C(CC)=C1C [MV6401, indium methyl pyropheophorbide]
[2]
  Fluorecence intensity, Tissue, Baseline: 50 ± 1.8
  Fluorecence intensity, Vessel, Baseline: 50 ± 1.6^c
[3]
  Fluorecence intensity, Tissue, 10 min: 91.9 ± 4.4
  Fluorecence intensity, Tissue, 1 hr: 121.1 ± 2.2
  Fluorecence intensity, Tissue, 24 hr: 135 ± 6.6
  Fluorecence intensity, Vessel, 10 min: 79.1 ± 1.95
  Fluorecence intensity, Vessel, 1 hr: 83.5 ± 1.9
  Fluorecence intensity, Vessel, 24 hr: 78.9 ± 2.0
[4]
  Fluorecence intensity, Tissue, Baseline: 59.5 ± 1.87
  Fluorecence intensity, Vessel, Baseline: 56.6 ± 1.24
[5]
  Fluorecence intensity, Tissue, 10 min: 119.7 ± 1.96
  Fluorecence intensity, Tissue, 1 hr: 122.9 ± 2.6
  Fluorecence intensity, Tissue, 24 hr: 156 ± 1.49
  Fluorecence intensity, Vessel, 10 min: 182.9 ± 2.6
  Fluorecence intensity, Vessel, 1 hr: 168.7 ± 2.5
  Fluorecence intensity, Vessel, 24 hr: 46 ± 1.4
